According to patent US20220370445A1, “METHODS FOR ADMINISTERING (R)-N-[4-(1,4,5,6-TETRAHYDRO-6-OXO-3-PYRIDAZINYL)PHENYL]ACETAMIDE” (ORION CORPORATION, priority 2019, published 2022):
Structures can show the parent of a compound that is named as a salt.

Tests used:
[1] = Bioavailability of compound (I) given by oropharyngeal aspiration to rats vs i.v.; type: in vivo, Male Sprague Dawley rats; settings: for bioavailability: male, Sprague Dawley, rat, plasma, other: oropharyngeal aspiration, read-out: bioavailability of oropharyngeal administration
Protocol: Oropharyngeal aspiration administration has been developed as an alternative technique for the inhaled delivery of medicaments to the lungs and provides a means to mimic human lung exposure of medicaments by inhalation (Hulland, K. et al., American Journal of Respiratory and Critical Care Medicine 2016, 193:A5928 and Barbayianni, I. et al., Frontiers of Medicine, September 2018, Vol 5, Article 269, 1-6).
Bioavailability of compound (I) given by oropharyngeal aspiration (dosing 10 or 20 μg/kg) was compared to 10 μg/kg intravenous (i.v.) administration in Male Sprague Dawley rats.
Composition for oropharyngeal dosing was as follows:
The oropharyngeal dose was administered to animals which were lightly anaesthetized by isoflurane inhalation. The animals were placed on a vertical stand the top teeth hooked over a rubber band to open the mouth. The 100 μl dose was dispensed by positive displacement pipette at the back of the throat of the animal while holding the tongue to prevent swallowing and nose held to encourage breathing through the mouth for (at least) 3 breaths. The nose released but tongue continually held for an additional couple of breaths to ensure solution deposited in the lungs and not swallowed. All animals recovered consciousness post dose.
The intravenous dose was administered as a slow bolus injection over 30 seconds via the lateral tail vein.
Blood samples were collected into a K2EDTA tube such as to obtain a sample after 5 min, 15 min, 30 min, 1 h, 3 h, 5 h, 8 h, 12 h, 24 h and 48 h post administration.
Aliquots of plasma were prepared and stored frozen until analysis. Compound (I) concentration in plasma was determined using a liquid chromatography-tandem mass spectrometry (LC-MS/MS). The lower limit of quantification for compound (I) in rat plasma was 0.02 ng/ml.

[2] = in man; cited from earlier work
heart rate = experiment: Effect of compound (I) alone or together with ivabradine on heart rate by oromucosal administration (telemetry); type: in vivo, Beagle dogs
Protocol: Male beagle dogs (n=3) were given a dose of compound (I) using oromucosal gel according to Formulation Example 3a alone (dosing period 1) or together with a dose of ivabradine using oromucosal gel according to Formulation Example 3c (dosing period 2). The dose of compound (I) was 18.5 μg/kg and the dose of ivabradine was 1 mg/kg (calculated as ivabradine base). Each dose was divided into two sites on gingival mucosa. The washout period between the dosing periods was at least 6 days. Heart rate of the animals was assesses at baseline and post-dosing using telemetry acquisition system.

[3] = Local tolerance of compound (I) given by ocular, intranasal or oromucosal administration to dogs; type: in vivo; settings: any administration route (ocular, intranasal, oromucosal), Beagle dogs
Protocol: Experiment 1. Bioavailability and Local Tolerance of Compound (I) Given by Ocular, Intranasal or Oromucosal Administration to Dogs.
(§1) Bioavailability of compound (I) given by ocular (4 μg/kg), intranasal (4 μg/kg) or oromucosal dosing (5 μg/kg) was compared to 4 μg/kg intravenous (i.v.) administration in Beagle dogs.
(§2) Composition of Formulation Example 1 was used for ocular administration, composition of Formulation Example 2 was used for intranasal administration and composition of Formulation Example 3 was used for oromucosal administration.
(§3) Ocular and intranasal doses were divided equally to both eyes or both nostrils. Oromucosal gel formulation was administered to buccal/gingival mucosa of the dog. The intravenous dose was administered in cephalic vein in slow i.v. bolus dosed within 30 seconds. Blood samples were collected into K2EDTA tubes over a 48 h period after each treatment at the following time points: predose, 2 min, 5 min, 10 min, 20 min, 30 min, 45 min, 1 h, 2 h, 4 h, 6 h, 8 h, 12 h, 24 h and 48 h post administration. Aliquots of plasma were prepared and stored frozen until analysis. Compound (I) concentration in plasma was determined using Liquid chromatography-triple quadrupole mass spectrometry. The lower limit of quantification for compound (I) in dog plasma was 0.1 ng/ml.

[4] = Bioavailability of compound (I) by ocular, intranasal or oromucosal administration vs i.v. in dogs; type: in vivo; settings: Beagle dogs; for bioavailability: dog, plasma, n=6
Protocol: as §1
The study was a crossover study with at least 6 days washout period between the treatment periods. The animals were fasted overnight before dosing by withdrawing the remaining feed (if any) at least 12 h before dosing. On dosing days, food was offered approximately at 4 h after dosing (after the 4 h blood sampling).
as §2, §3

Compound	bioavailability ([1]; oropharyngeal 0.01 mg/kg vs 0.01 mg/kg i.v.) [%]	bioavailability ([1]; oropharyngeal 0.02 mg/kg vs 0.01 mg/kg i.v.) [%]	absorption ([1]; oropharyngeal route)	elimination half-life [2]	heart rate after dosing (heart rate; oromucosal gel 18.5 μg/kg alone, male beagle dogs n=3, baseline 93±9 bpm) [bpm]	irritation (local tolerance) [3]	bioavailability ([4]; other: intranasal (drops), 4 ug/kg, intranasal drops 4 μg/kg vs 4 μg/kg i.v.) [%]	bioavailability ([4]; other: ocular (eye drops), 4 ug/kg, eye drops, ocular 4 μg/kg vs 4 μg/kg i.v.) [%]	bioavailability ([4]; other: oromucosal (gel to buccal/gingival mucosa), 5 ug/kg, oromucosal gel 5 μg/kg vs 4 μg/kg i.v.) [%]	absorption ([4]; ocular drops, intranasal drops or oromucosal gel)	prevention of heart rate increase induced by compound (I) (heart rate; oromucosal 1 mg/kg concurrent with compound (I) 18.5 μg/kg oromucosal, beagle dogs)
CC(=O)Nc1ccc(C2=NNC(=O)C[C@H]2C)cc1 [Compound (I), (R)—N-[4-(1,4,5,6-tetrahydro-4-methyl-6-oxo-3-pyridazinyl)phenyl]acetamide]	94.9	97.1	fast absorption comparable to intravenous administration	about 72 h	167±8	No significant irritation	82	67	78	fast absorption comparable to intravenous administration	
COc1cc2c(cc1OC)CC(=O)N(CCCN(C)C[C@H]1Cc3cc(OC)c(OC)cc31)CC2 [ivabradine hydrochloride, reference compound]											completely prevent the heart rate increase
